Experiments:
[1] = tested on: A549 human lung cancer cells; assay: In vitro anti-proliferative effect, CCK-8 method, A549; type: cell-based; details: Homo sapiens, A549
Procedure, shortened: (§1)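 Two-point screen, 100 μM and 10 μM; CCK-8 colorimetric read-out gives % growth inhibition.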

[2] = tested on: Hut78 T lymphocytic leukemia cells; assay: In vitro anti-proliferative effect, CCK-8 method, Hut78; type: cell-based; details: Homo sapiens, HuT78; for inhibition at 10 µM / inhibition at 100 µM: read-out: Hut-78 (inhibition %)
Procedure, shortened: (§2)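 K562 and Hut78 cells exposed to compounds at 100 μM and 10 μM. Percent inhibition of proliferation determined by CCK-8 read-out.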

[3] = tested on: K562 human chronic myelogenous leukemia cells; assay: In vitro anti-proliferative effect, CCK-8 method, K562; type: cell-based; details: Homo sapiens, K562
Procedure, shortened: as §2

[4] = tested on: Hep3B2.1-7 human liver cancer cells; assay: In vitro anti-proliferative effect, CCK-8 method, Hep3B; type: cell-based; details: Homo sapiens; for inhibition at 10 µM / inhibition at 100 µM: Hep3B cell strain, CCK-8 method; for inhibition at 10 µM: compound at 10 μM; for inhibition at 100 µM: compound at 100 μM
Procedure, shortened: as §1

[5] = tested on: MDA-MB-435s human breast cancer cells; assay: In vitro anti-proliferative effect, CCK-8 method, MDA-MB-435s; type: cell-based; details: Homo sapiens, MDA-MB-435S
Procedure, shortened: as §1

[6] = tested on: PANC-1 human pancreatic cancer cells; assay: In vitro anti-proliferative effect, CCK-8 method, PANC-1; type: cell-based; details: Homo sapiens, PANC-1
Procedure, shortened: as §1

[7] = target: HDAC1 (Homo sapiens (Human), UniProt Q13547); assay: In vitro inhibition of subtype HDAC1 (HDAC1 Inhibitor Drug Screening Kit, Biovision); type: biochemical; details: for inhibition at 1 µM / inhibition at 10 µM: read-out: % Inhibition towards HDAC1; for inhibitory activity against HDAC1 compared with MS-275: both concentrations 10 μM and 1 μM
Sequence of HDAC1 (Q13547 whole entry): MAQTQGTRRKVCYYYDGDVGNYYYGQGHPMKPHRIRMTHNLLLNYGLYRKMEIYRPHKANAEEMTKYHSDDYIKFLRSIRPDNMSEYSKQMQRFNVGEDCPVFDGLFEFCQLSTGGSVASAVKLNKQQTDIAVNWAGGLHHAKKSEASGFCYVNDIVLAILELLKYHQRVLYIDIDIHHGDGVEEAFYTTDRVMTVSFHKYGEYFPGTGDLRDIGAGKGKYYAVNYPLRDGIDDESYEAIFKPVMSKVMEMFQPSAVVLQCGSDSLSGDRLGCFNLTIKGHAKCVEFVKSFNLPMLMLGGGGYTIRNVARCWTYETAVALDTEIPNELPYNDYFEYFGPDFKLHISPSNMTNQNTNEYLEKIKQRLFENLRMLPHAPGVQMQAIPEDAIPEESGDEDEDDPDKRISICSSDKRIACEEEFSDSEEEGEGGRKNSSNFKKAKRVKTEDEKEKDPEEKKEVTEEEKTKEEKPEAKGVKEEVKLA
Experimental: The in vitro inhibitory activities of the compounds towards the subtype HDAC1 were tested according to the instructions in the HDAC1 Inhibitor Drug Screening Kit (Biovision).
(1) The compounds to be tested were each individually prepared as 10 μM and 1 μM solutions and their inhibitory activities at these concentrations were tested.
Each dilution sample was placed in two wells and the enzyme inhibition IC50 of the compound was tested.

[8] = tested on: PC-3 human prostate cancer; assay: In vitro anti-proliferative effect, CCK-8 method, PC-3; type: cell-based; details: Homo sapiens; for inhibition at 10 µM / inhibition at 100 µM: PC-3 cell strain, CCK-8 method; for inhibition at 10 µM: compound at 10 μM; for inhibition at 100 µM: compound at 100 μM
Procedure, shortened: as §1

[9] = tested on: Colo320 human colorectal cancer cell lines; assay: In vitro anti-proliferative effect, CCK-8 method, Colo320; type: cell-based; details: Homo sapiens, COLO 320; for inhibition at 10 µM / inhibition at 100 µM: Colo320 cell strain, CCK-8 method; for inhibition at 10 µM: compound at 10 μM; for inhibition at 100 µM: compound at 100 μM
Procedure, shortened: as §1

[10] = tested on: HDACs; assay: In vitro inhibition of HDACs (HDAC Inhibitor Drug Screening Kit, Biovision K340-100); type: biochemical; details: for inhibitory activity on HDACs compared with MS-275: concentrations of 2 mM, 200 μM, and 40 μM
Experimental: The in vitro inhibitory activities of the compounds towards HDACs were tested according to the instructions in the HDAC Inhibitor Drug Screening Kit (Biovision/Catalog #K340-100).
(1) The compounds to be tested were each individually prepared as 2 mM, 200 μM and 40 μM solutions and their inhibitory activities at these concentrations were tested.

[11] = tested on: Jurkat E6-1 human T-cell lymphoma; assay: In vitro anti-proliferative effect, CCK-8 method, Jurkat E6-1; type: cell-based; details: Homo sapiens, Jurkat E6.1
Procedure, shortened: as §1

[12] = Maximum tolerance dose through intragastrical administration; type: in vivo; details: mice, administrated intragastrically
Experimental: Forty ICR mice, half female and half male, weighing […] were divided into four groups, 10 mice in each group. After the mice were fasted for 6 h, the compound to be tested was administrated intragastrically to each group at a volume of 0.3 ml/10 g by using a sterile plastic syringe. General physical signs and the deaths of the animals were record at 1, 2 and 4 h after the administration. The animals were then observed continuously for 14 days and their weights, physical signs and deaths were observed and recorded every day. Dead animals were dissected to see if there was any visible pathological change in the animal's viscera and pathological examination was performed on suspicious tissues and organs. A part of the experimental results is as follows.

SMILES | inhibition at 10 µM [1] [%] | inhibition at 100 µM [1] [%] | inhibition at 10 µM [2] [%] | inhibition at 100 µM [2] [%] | inhibition at 10 µM [3] [%] | inhibition at 100 µM [3] [%] | inhibition at 10 µM [4] [%] | inhibition at 100 µM [4] [%] | inhibition at 10 µM [5] [%] | inhibition at 100 µM [5] [%] | inhibition at 10 µM [6] [%] | inhibition at 100 µM [6] [%] | inhibition at 1 µM [7] [%] | inhibition at 10 µM [7] [%] | inhibition at 10 µM [8] [%] | inhibition at 100 µM [8] [%] | inhibition at 10 µM [9] [%] | inhibition at 100 µM [9] [%] | IC50 [10] [nM] | Inhibition percentage (%) towards HDACs ([10]; 40 μM) [%] | also measured
Nc1ccccc1NC(=O)c1ccc(Nc2ncnc3ccc([N+](=O)[O-])cc23)cc1 [Compound V-11, N-(2-aminophenyl)-4-(6-nitroquinazoline-4-amino)benzamide] | 15.3 | 12.9 | 28.5 | 84.6 | 20.4 | 32.3 | 22.3 | 43 | 30.6 | 42.4 | 24 | 21.1 | 26.2 | 33.4 | 21.9 | 18.8 | 2.6 | 4.1 | 3110 | 4.1 | inhibitory activity according to in vitro IC50 value against HDACs compared with MS-275 [10]: better inhibitory activities than MS-275; Inhibition percentage (%) towards HDACs ([10]; 200 μM): 11.1%; Inhibition percentage (%) towards HDACs ([10]; 2 mM): 49.0%; inhibition at 10 µM [11]: 18.6%; inhibition at 100 µM [11]: 26.3%; maximum tolerance dose [12]: over 2000 mg/kg
Nc1ccccc1NC(=O)c1ccc(Nc2ncnc3cc(F)ccc23)cc1 [Compound V-13, N-(2-aminophenyl)-4-(7-fluoroquinazoline-4-amino)benzamide] | 18.3 | 57.1 | 19.8 | 54 | 25 | 65.1 | 21.5 | 69.8 | 27.5 | 89.1 | 26 | 36.8 | 53.1 | 83 | -1.9 | 48.5 | 0.9 | 34.3 | 1140 | 1.0 | inhibitory activity against HDAC1 compared with MS-275 [7]: superior to that of MS-275; Inhibition percentage (%) towards HDACs ([10]; 200 μM): 20.1%; Inhibition percentage (%) towards HDACs ([10]; 2 mM): 50.0%; inhibition at 10 µM [11]: 19.1%; inhibition at 100 µM [11]: 77.8%; maximum tolerance dose [12]: over 5000 mg/kg
Nc1ccc(F)cc1NC(=O)c1ccc(Nc2ncnc3c(F)cccc23)cc1 [Compound V-14, N-(2-amino-5-fluorophenyl)-4-(8-fluoroquinazoline-4-amino)benzamide] | -17.6 | 72.2 | 22 | 91.1 | 34 | 88.7 | 7.2 | 79.3 | 19.5 | 63.9 | -2.8 | 15.7 | 1.48 | 28.9 | 22.9 | 84.4 | -14.3 | 82.7 | 3770 | 46.8 | IC50 [1]: 5090 nM; IC50 [2]: 55.8 nM; IC50 [3]: 2810 nM; IC50 ([4]; Hep3B): 16000 nM; IC50 [8]: 3570 nM; IC50 [9]: 27000 nM; inhibitory activity according to in vitro IC50 value against HDACs compared with MS-275 [10]: better inhibitory activities than MS-275; Inhibition percentage (%) towards HDACs ([10]; 200 μM): 67.1%; Inhibition percentage (%) towards HDACs ([10]; 2 mM): 94.8%; inhibitory activity on HDACs compared with MS-275 [10]: significantly stronger inhibitory activities than MS-275; IC50 [11]: 1390 nM; inhibition at 10 µM [11]: 23.8%; inhibition at 100 µM [11]: 96.5%; maximum tolerance dose [12]: over 2000 mg/kg
COc1cc2ncnc(Nc3ccc(C(=O)Nc4ccccc4N)cc3)c2cc1OCCCN1CCOCC1 [Compound V-17, N-(2-aminophenyl)-4-[7-methoxy-6-(3-morpholinylpropoxy)quinazoline-4-amino]benzamide] | 29.8 | 67.9 | 73.4 | 93.5 | 33.6 | 72.4 | 18.4 | 45.7 | 32.5 | 73.3 | 12 | 25.1 | 53.9 | 76.2 | 41.8 | 67.1 | 4.9 | 28.9 | 1720 | 39.7 | IC50 [7]: 735 nM; inhibitory activity against HDAC1 compared with MS-275 [7]: superior to that of MS-275; inhibitory activity according to in vitro IC50 value against HDACs compared with MS-275 [10]: better inhibitory activities than MS-275; Inhibition percentage (%) towards HDACs ([10]; 200 μM): 60.7%; Inhibition percentage (%) towards HDACs ([10]; 2 mM): 86.7%; inhibitory activity on HDACs compared with MS-275 [10]: significantly stronger inhibitory activities than MS-275; inhibition at 10 µM [11]: 20.3%; inhibition at 100 µM [11]: 80.2%; maximum tolerance dose [12]: over 5000 mg/kg

— patent US9034886B2, “4-aminoquinazoline derivatives and uses thereof” (Shanghai Institute of Pharmaceutical Industry, priority 2011, dated 2015)
